Patent publication EP0108170A1, “3-Benzazepines as alpha-2 antagonists” (SMITHKLINE BECKMAN CORPORATION, priority 1982, dated 1984)

What was measured:
[1] = tested on: alpha2; experiment: prejunctional alpha2 antagonist activity, isolated superfused guinea pig left atrium (shift of clonidine concentration-response curve); assay type: cell-based
Procedure: Briefly, the heart is removed from a pentobarbital-anesthetized male guinea pig. The left atrium is removed, dissected free of extraneous tissue and mounted in a 2 ml. superfusion chamber. The tissue is paced at 60 pulse/minute and the sympathetic nerves excited at 6 minute intervals by field stimulation. The response to nerve stimulation is measured as the difference in contractile force between the basal contraction and peak contraction following a nerve stimulation. A concentration-response curve for clonidine (alpha2 agonist) is prepared by administering an increasing concentration of clonidine following each successive stimulation. The tissue is then superfused with the alpha2 antagonist to be tested for thirty minutes and the clonidine concentration-effect curve was repeated in the presence of antagonist. The receptor dissociation constant of the antagonist (KB) is defined as the antagonist concentration required to shift the log concentration-response curve of the agonist to the right by a factor of 2.

[2] = tested on: normotensive and hypertensive rats; experiment: antihypertensive activity in vivo, blood pressure in conscious cannulated rats; conditions: for effect on diastolic blood pressure: i.v. administration
Procedure: Cannulas are run intradermally so as to be externalized in the dorso-sacral area of either side and kept in place by wound clips. The rats are allowed to regain consciousness after being placed in a small animal restrainer. The arterial cannula is connected to a pressure transducer for constant blood pressure and heart rate monitoring. Drugs are administered either orally via gavage or i.v. via the femoral vein cannula at a rate of 0.06 ml./minute.
The above test is conducted on both normotensive and hypertensive rats. DOCA Salt hypertensive rats are prepared from male uninephrectomized Sprague-Dawley rats. The rats, approximately six weeks of age, are lightly anesthetized with ether and subcutaneously implanted with a 25 mg. deoxycorticosterone acetate pellet in the left dorso-sacral area..Six days later a second pellet is implanted in the right dorso-sacral area. These rats are fed a normal laboratory diet, but are given 1% saline - solution to drink in place of water. The rats are kept on the saline drinking water for 22-24 days.
The following table sets forth the effect of 6-chloro-2,3,4,5-tetrahydro-3-methyl-lH-3-benzazepine on blood pressure after i.v. administration to both normotensive and hypertensive rats.

[3] = tested on: rabbit; experiment: normal rabbit intraocular pressure determination (applanation pneumatonograph); assay type: in vivo; conditions: given systemically

SMILES	Kb ([1]; isolated perfused guinea pig left atrium, antagonist concentration shifting clonidine curve to the right by a factor of 2) [nM]	effect on diastolic blood pressure ([2]; DOCA Salt hypertensive rats)	antihypertensive effect, dose dependence ([2]; comparison of the 0.5 mg./kg. and 1.0 mg./kg. doses, i.v.)	effect on diastolic blood pressure ([2]; normotensive rats)	effect on diastolic blood pressure ([2]; spontaneously hypertensive rats)	effect on systemic blood pressure [3]	alpha2 antagonist activity relative to the 6-chloro derivative ([1]; fraction of the activity of the 6-chloro derivative)
CN1CCc2cccc(Cl)c2CC1 [6-chloro-2,3,4,5-tetrahydro-3-methyl-lH-3-benzazepine]	13	marked drop	dose- related	little effect	marked drop	no significant effect	–
CN1CCc2ccc(Cl)cc2CC1 [7-chloro-2,3,4,5-tetrahydro-3-methyl-lH-3-benzazepine, reference compound]	–	–	–	–	–	–	about one tenth
